Series [1] can be described thus: Solubility of selected steroids enhanced by cyclodextrins (phase solubility). The following applies: thermodynamic from solid.
Series [2] in a line: Molar ratio SAE-CD:corticosteroid at saturated solubility (phase solubility binding study). It counts as physicochemical.
Series [3] in a line: Stability of budesonide R- and S-isomers with and without SBE7-β-CD (Example 13). Format: physicochemical. Here is the method:
The inventors have also discovered that SAE-CD is capable of stabilizing the isomers of budesonide to different extents. A study to determine if SBE7-β-CD stabilized budesonide solutions and if it preferentially stabilized one isomer was conducted according to Example 13. FIG. 11 is a semi-log plot of the % of initial concentration at each time point for the samples stored at 60 ° C. Loss of budesonide was first order at each temperature.
Solutions of budesonide with and without SBE7-β-CD were prepared at two different pHs (4 and 6) and stored at 2 different temperatures (60° C. and 80° C.). Citrate buffers (50 mM) at each pH value were prepared by mixing differing portions of 50 mM citric acid and 50 mM sodium citrate (tribasic, dihydrate) solutions. To achieve a concentration of budesonide in the buffers without SBE7-β-CD sufficient for accurate measurement, the budesonide was dissolved first in 100% ethyl alcohol. An aliquot of the ethanol/budesonide solution was then added drop-wise with stirring to each buffer solution. The theoretical budesonide concentration was 100 μg/mL with a final ethanolic content of 5% in each buffer. All solution preps and procedures involving budesonide were done in a darkened room under red light. After shaking solutions for 24 hours, both buffer solutions were filtered through Millipore Millex-GV 0.22 μm syringe filters to remove any solid that had precipitated (no significant amounts observed) from the solutions. The final budesonide concentration was about 50 μg/mL. Both the pH 4 and 6 solutions were split in two, and solid SBE7-β-CD was added to one of the portions to create solutions with and without 1% w/v SBE7-β-CD at each pH. Each solution was aliquoted into individual amber vials. They were then placed in ovens at 60° C. and 80° C. Sample vials were removed from the ovens and analyzed by HPLC at 0, 96, 164, and 288 hours. The HPLC assay conditions are summarized below.

Where [4] appears, read: aqueous cyclodextrin solution, aqueous with cosolvent or surfactant or cyclodextrin, Solubility of steroid, (SBE)5.2 γ-CD 0.1 M.
Where [5] appears, read: aqueous cyclodextrin solution, aqueous with cosolvent or surfactant or cyclodextrin, Solubility of steroid, (SBE)6.1 γ-CD 0.04 M.
[6] abbreviates: aqueous cyclodextrin solution, aqueous with cosolvent or surfactant or cyclodextrin, Solubility of steroid, (SBE)6.1 γ-CD 0.08 M.
Where [7] appears, read: aqueous cyclodextrin solution, aqueous with cosolvent or surfactant or cyclodextrin, Solubility of steroid, (SBE)6.7 β-CD 0.0465 M.
Where [8] appears, read: aqueous cyclodextrin solution, aqueous with cosolvent or surfactant or cyclodextrin, Solubility of steroid, (SBE)6.7 β-CD 0.0950 M.
Where [9] appears, read: aqueous cyclodextrin solution, aqueous with cosolvent or surfactant or cyclodextrin, Solubility of steroid, (SBE)7 α-CD 0.04 M.
[10] abbreviates: aqueous cyclodextrin solution, aqueous with cosolvent or surfactant or cyclodextrin, Solubility of steroid, (SBE)7 α-CD 0.08 M.
Setting [11] is: aqueous cyclodextrin solution, aqueous with cosolvent or surfactant or cyclodextrin, Solubility of steroid, (SBE)9.7 γ-CD […].
The mark [12] stands for this setting: aqueous cyclodextrin solution, aqueous with cosolvent or surfactant or cyclodextrin, Solubility of steroid, (SPE)5.4 γ-CD 0.04 M.
Where [13] appears, read: aqueous cyclodextrin solution, aqueous with cosolvent or surfactant or cyclodextrin, Solubility of steroid, (SPE)5.4 γ-CD 0.08 M.
Setting [14] is: aqueous cyclodextrin solution, aqueous with cosolvent or surfactant or cyclodextrin, Solubility of steroid, (SPE)7 β-CD 0.04 M.
Where [15] appears, read: aqueous cyclodextrin solution, aqueous with cosolvent or surfactant or cyclodextrin, Solubility of steroid, (SPE)7 β-CD 0.08 M.
[16] abbreviates: aqueous cyclodextrin solution, aqueous with cosolvent or surfactant or cyclodextrin, Solubility of steroid, γ-CD 0.035 M.
[17] abbreviates: aqueous cyclodextrin solution, aqueous with cosolvent or surfactant or cyclodextrin, Solubility of steroid, γ-CD 0.1 M.
The mark [18] stands for this setting: aqueous cyclodextrin solution, aqueous with cosolvent or surfactant or cyclodextrin, [Steroid] solubility, (SBE)6.1 γ-CD (0.04 M).
[19] abbreviates: aqueous cyclodextrin solution, aqueous with cosolvent or surfactant or cyclodextrin, [Steroid] solubility, Captisol (0.04 M).
The mark [20] stands for this setting: water, Solubility of steroid, H2O, no CD.
The mark [21] stands for this setting: water, [Steroid] Intrinsic Solubility (in H2O), in H2O.
Setting [22] is: aqueous cyclodextrin solution, aqueous with cosolvent or surfactant or cyclodextrin, Solubility of steroid, (SBE)2.4 β-CD 0.04 M.

Consider six compounds from patent US20070020196A1, “Inhalant formulation containing sulfoalkyl ether cyclodextrin and corticosteroid prepared from a unit dose suspension” (priority 2003, published 2007).

Each structure is given as a SMILES string.

In general, solubility refers to the dissolved amount per volume that the medium holds. Turning to `C[C@@H]1C[C@H]2[C@@H]3CCC4=CC(=O)C=C[C@]4(C)[C@@]3(Cl)[C@@H](O)C[C@]2(C)[C@@]1(OC(=O)c1ccco1)C(=O)CCl` [Mometasone furoate, mometasone furoate], the solubility in series [1] (setting [4]) stood at 939 µM; in series [1] (setting [5]), 415 µM; in series [1] (setting [6]), 929 µM; in series [1] (setting [7]), 164 µM; in series [1] (setting [8]), 311 µM; in series [1] (setting [9]) it was 301 µM. In addition, the solubility was found to be 355 µM in series [1] (setting [10]); 940 µM in series [1] (setting [11]); 287 µM in series [1] (setting [12]); 513 µM in series [1] (setting [13]); 72.3 µM in series [1] (setting [14]); 108 µM in series [1] (setting [15]). Moreover, the solubility in series [1] (aqueous cyclodextrin solution, aqueous with cosolvent or surfactant or cyclodextrin, Solubility of steroid, α-CD 0.08 M) stood at 2.7 µM; in series [1] (aqueous cyclodextrin solution, aqueous with cosolvent or surfactant or cyclodextrin, Solubility of steroid, β-CD 0.015M), 13.6 µM; in series [1] (setting [16]), 141 µM; in series [1] (setting [17]) it was 658 µM; in series [1] (setting [18]), 415 µM; in series [1] (setting [19]), 164 µM. The solubility in series [1] (setting [20]) and in series [1] (setting [21]) was 18.2 µM throughout. Also, the “Approximate Molar Ratio at Saturated Solubility of Corticosteroid (SAE-CD: corticosteroid)” value (“Approximate Molar Ratio” below) in series [2] (SAE-α-CD) is approximately 141; in series [2] (SAE-β-CD) it was approximately 274; in series [2] (SAE-γ-CD) it was approximately 101.

For `CCC[C@@H]1O[C@@H]2C[C@H]3[C@@H]4CCC5=CC(=O)C=C[C@]5(C)[C@H]4[C@@H](O)C[C@]3(C)[C@]2(C(=O)CO)O1` (single isomer, unassigned) [R-isomer], the “With/without CAPTISOL ratio of rate constants” value in series [3] (pH 4, 60° C.) amounted to 0.547; in series [3] (pH 4, 80° C.), 0.607; in series [3] (pH 6, 60° C.), 0.385; in series [3] (pH 6, 80° C.) it was 0.529. In addition, the “Pseudo 1st Order Rate constant” value in series [3] (pH 4 no CAPTISOL, 60° C.) was determined as 0.00109 h⁻¹; in series [3] (pH 4 no CAPTISOL, 80° C.), 0.003704 h⁻¹; in series [3] (pH 4 w/ CAPTISOL, 60° C.) it was 0.000597 h⁻¹; in series [3] (pH 4 w/ CAPTISOL, 80° C.), 0.00225 h⁻¹; in series [3] (pH 6 no CAPTISOL, 60° C.), 0.00432 h⁻¹; in series [3] (pH 6 no CAPTISOL, 80° C.), 0.0138 h⁻¹. The “Pseudo 1st Order Rate constant” value in series [3] (pH 6 w/ CAPTISOL, 60° C.) amounted to 0.001661 h⁻¹; in series [3] (pH 6 w/ CAPTISOL, 80° C.), 0.00732 h⁻¹.

With `C[C@@H]1C[C@H]2[C@@H]3C[C@H](F)C4=CC(=O)C=C[C@]4(C)[C@@]3(F)[C@@H](O)C[C@]2(C)[C@@]1(O)C(=O)SCF` [Fluticasone, fluticasone], the solubility in series [1] (setting [22]) came to 128 µM; in series [1] (setting [4]), 14400 µM; in series [1] (setting [5]) it was 5760 µM; in series [1] (setting [6]), 9490 µM; in series [1] (setting [7]) it was 1260 µM; in series [1] (setting [8]), 2160 µM. Also, the solubility in series [1] (setting [11]) came to 8950 µM; in series [1] (setting [12]), 7600 µM; in series [1] (setting [13]), 13900 µM; in series [1] (setting [14]), 939 µM; in series [1] (setting [15]) it was 1510 µM; in series [1] (setting [17]), 822 µM. Moreover, the solubility in series [1] (setting [20]) was determined as 1.6 µM. For the same compound, in series [2] (SAE-β-CD), the “Approximate Molar Ratio” value is approximately 32.

For `CCC(=O)O[C@]1(C(=O)SCF)[C@H](C)C[C@H]2[C@@H]3C[C@H](F)C4=CC(=O)C=C[C@]4(C)[C@@]3(F)[C@@H](O)C[C@@]21C` [Fluticasone propionate, fluticasone propionate], the solubility came out at 17 µM in series [1] (setting [22]); 24.6 µM in series [1] (aqueous cyclodextrin solution, aqueous with cosolvent or surfactant or cyclodextrin, Solubility of steroid, (SBE)2.4 β-CD 0.08 M); 791 µM in series [1] (aqueous cyclodextrin solution, aqueous with cosolvent or surfactant or cyclodextrin, Solubility of steroid, (SBE)5.2 γ-CD 0.04 M); 2150 µM in series [1] (setting [4]); 518 µM in series [1] (setting [5]); 1210 µM in series [1] (setting [6]). For the same compound, the solubility in series [1] (setting [7]) amounted to 54.1 µM; in series [1] (setting [8]) it was 79.9 µM; in series [1] (setting [9]), 83.7 µM; in series [1] (setting [10]) it was 114 µM; in series [1] (aqueous cyclodextrin solution, aqueous with cosolvent or surfactant or cyclodextrin, Solubility of steroid, (SBE)9.7 γ-CD 0.04 M), 545 µM; in series [1] (setting [11]) it was 1030 µM. Further, the solubility in series [1] (setting [12]) was found to be 717 µM; in series [1] (setting [13]), 1400 µM; in series [1] (setting [14]) it was 10.5 µM; in series [1] (setting [15]), 21.2 µM; in series [1] (setting [16]), 735 µM; in series [1] (setting [17]) it was 221 µM. For the same compound, the solubility worked out at 518 µM in series [1] (setting [18]), 54.1 µM in series [1] (setting [19]), 3.9 µM in series [1] (setting [20]) and 3.9 µM in series [1] (setting [21]). In addition, the “Approximate Molar Ratio” value is listed as approximately 501 in series [2] (SAE-α-CD), approximately 797 in series [2] (SAE-β-CD) and approximately 51 in series [2] (SAE-γ-CD).

In the case of `CC1(C)O[C@@H]2C[C@H]3[C@@H]4CCC5=CC(=O)C=C[C@]5(C)[C@@]4(F)[C@@H](O)C[C@]3(C)[C@]2(C(=O)CO)O1` [Triamcinolone acetonide, triamcinolone acetonide], the solubility in series [1] (setting [5]) turned out to be 10600 µM; in series [1] (setting [6]) it was 23900 µM; in series [1] (setting [7]) it was 4570 µM; in series [1] (setting [8]) it was 10200 µM; in series [1] (setting [16]) it was 1980 µM; in series [1] (setting [17]), 1390 µM. For the same compound, the solubility in series [1] (setting [18]) was found to be 10600 µM; in series [1] (setting [19]) it was 4570 µM; in series [1] (setting [20]) it was 35.6 µM; in series [1] (setting [21]), 35.6 µM. Also, the “Approximate Molar Ratio” value in series [2] (SAE-β-CD) was approximately 9.

Consider `CCC[C@H]1O[C@@H]2C[C@H]3[C@@H]4CCC5=CC(=O)C=C[C@]5(C)[C@H]4[C@@H](O)C[C@]3(C)[C@]2(C(=O)CO)O1` (single isomer, unassigned) [S-isomer], for which the “With/without CAPTISOL ratio of rate constants” value in series [3] (pH 4, 60° C.) is given as 0.323; in series [3] (pH 4, 80° C.), 0.491; in series [3] (pH 6, 60° C.), 0.193; in series [3] (pH 6, 80° C.) it was 0.384. In addition, the “Pseudo 1st Order Rate constant” value in series [3] (pH 4 no CAPTISOL, 60° C.) is 0.0037 h⁻¹; in series [3] (pH 4 no CAPTISOL, 80° C.) it was 0.00131 h⁻¹; in series [3] (pH 4 w/ CAPTISOL, 60° C.), 0.00012 h⁻¹; in series [3] (pH 4 w/ CAPTISOL, 80° C.) it was 0.000644 h⁻¹; in series [3] (pH 6 no CAPTISOL, 60° C.) it was 0.001872 h⁻¹; in series [3] (pH 6 no CAPTISOL, 80° C.), 0.00661 h⁻¹. Also, the “Pseudo 1st Order Rate constant” value in series [3] (pH 6 w/ CAPTISOL, 60° C.) worked out at 0.000361 h⁻¹; in series [3] (pH 6 w/ CAPTISOL, 80° C.), 0.00254 h⁻¹.
